Experiments:
[1] = system: adult patients with essential tremor; assay: Essential tremor trial Example 16 Part B randomized withdrawal phase: TETRAS, mADL, ADL efficacy; format: in vivo, human; parameters: TETRAS mADL Mean CFB (SD): unit not given here; details: for TETRAS ADL LS Mean CFB / TETRAS CULS LS Mean CFB / TETRAS PS Item 6: Archimedes Spiral (Left) LS Mean CFB / TETRAS PS Item 6: Archimedes Spiral (Right) LS Mean CFB / TETRAS PS Item 7: Handwriting LS Mean CFB / TETRAS PSTS LS Mean CFB / TETRAS ULS LS Mean CFB / TETRAS mADL LS Mean CFB: change from randomization baseline; for TETRAS ADL Mean CFB (SD) / TETRAS CULS CTA (%) / TETRAS PS Item 6: Archimedes Spiral (Left) CTA (%) / TETRAS PS Item 6: Archimedes Spiral (Right) CTA (%) / TETRAS PS Item 7: Handwriting CTA (%) / TETRAS PSTS CTA (%) / TETRAS ULS CTA (%) / TETRAS mADL Mean CFB (SD): from randomization baseline
Description: A two part trial (Part A and Part B as described below) was conducted to study the efficacy, safety, tolerability, and pharmacokinetics of the compound of formula (I) in adult patients with essential tremor (ET).
Participants were males and females ages 18 and older with a clinical diagnosis of ET. Participants who have a history of any other medical, neurological, or psychiatric condition that may explain or cause tremor were excluded. Participants who have previously received treatment with formula (I) in any clinical trial (including Part A of the current trial for participants enrolling in Part B) were also excluded.
In Part B, an open label titration phase and a randomized, double-blind, placebo-controlled trial was conducted.

hCav3.1 = molecular target: T1, hCav3.1 (Homo sapiens, UniProt O43497); assay: PatchXpress patch clamp, voltage dependent block (half-inactivated state); format: cell-based
T1 construct: expressed in transfected cells; host or cells: HEK-293
T1 sequence (O43497 whole entry): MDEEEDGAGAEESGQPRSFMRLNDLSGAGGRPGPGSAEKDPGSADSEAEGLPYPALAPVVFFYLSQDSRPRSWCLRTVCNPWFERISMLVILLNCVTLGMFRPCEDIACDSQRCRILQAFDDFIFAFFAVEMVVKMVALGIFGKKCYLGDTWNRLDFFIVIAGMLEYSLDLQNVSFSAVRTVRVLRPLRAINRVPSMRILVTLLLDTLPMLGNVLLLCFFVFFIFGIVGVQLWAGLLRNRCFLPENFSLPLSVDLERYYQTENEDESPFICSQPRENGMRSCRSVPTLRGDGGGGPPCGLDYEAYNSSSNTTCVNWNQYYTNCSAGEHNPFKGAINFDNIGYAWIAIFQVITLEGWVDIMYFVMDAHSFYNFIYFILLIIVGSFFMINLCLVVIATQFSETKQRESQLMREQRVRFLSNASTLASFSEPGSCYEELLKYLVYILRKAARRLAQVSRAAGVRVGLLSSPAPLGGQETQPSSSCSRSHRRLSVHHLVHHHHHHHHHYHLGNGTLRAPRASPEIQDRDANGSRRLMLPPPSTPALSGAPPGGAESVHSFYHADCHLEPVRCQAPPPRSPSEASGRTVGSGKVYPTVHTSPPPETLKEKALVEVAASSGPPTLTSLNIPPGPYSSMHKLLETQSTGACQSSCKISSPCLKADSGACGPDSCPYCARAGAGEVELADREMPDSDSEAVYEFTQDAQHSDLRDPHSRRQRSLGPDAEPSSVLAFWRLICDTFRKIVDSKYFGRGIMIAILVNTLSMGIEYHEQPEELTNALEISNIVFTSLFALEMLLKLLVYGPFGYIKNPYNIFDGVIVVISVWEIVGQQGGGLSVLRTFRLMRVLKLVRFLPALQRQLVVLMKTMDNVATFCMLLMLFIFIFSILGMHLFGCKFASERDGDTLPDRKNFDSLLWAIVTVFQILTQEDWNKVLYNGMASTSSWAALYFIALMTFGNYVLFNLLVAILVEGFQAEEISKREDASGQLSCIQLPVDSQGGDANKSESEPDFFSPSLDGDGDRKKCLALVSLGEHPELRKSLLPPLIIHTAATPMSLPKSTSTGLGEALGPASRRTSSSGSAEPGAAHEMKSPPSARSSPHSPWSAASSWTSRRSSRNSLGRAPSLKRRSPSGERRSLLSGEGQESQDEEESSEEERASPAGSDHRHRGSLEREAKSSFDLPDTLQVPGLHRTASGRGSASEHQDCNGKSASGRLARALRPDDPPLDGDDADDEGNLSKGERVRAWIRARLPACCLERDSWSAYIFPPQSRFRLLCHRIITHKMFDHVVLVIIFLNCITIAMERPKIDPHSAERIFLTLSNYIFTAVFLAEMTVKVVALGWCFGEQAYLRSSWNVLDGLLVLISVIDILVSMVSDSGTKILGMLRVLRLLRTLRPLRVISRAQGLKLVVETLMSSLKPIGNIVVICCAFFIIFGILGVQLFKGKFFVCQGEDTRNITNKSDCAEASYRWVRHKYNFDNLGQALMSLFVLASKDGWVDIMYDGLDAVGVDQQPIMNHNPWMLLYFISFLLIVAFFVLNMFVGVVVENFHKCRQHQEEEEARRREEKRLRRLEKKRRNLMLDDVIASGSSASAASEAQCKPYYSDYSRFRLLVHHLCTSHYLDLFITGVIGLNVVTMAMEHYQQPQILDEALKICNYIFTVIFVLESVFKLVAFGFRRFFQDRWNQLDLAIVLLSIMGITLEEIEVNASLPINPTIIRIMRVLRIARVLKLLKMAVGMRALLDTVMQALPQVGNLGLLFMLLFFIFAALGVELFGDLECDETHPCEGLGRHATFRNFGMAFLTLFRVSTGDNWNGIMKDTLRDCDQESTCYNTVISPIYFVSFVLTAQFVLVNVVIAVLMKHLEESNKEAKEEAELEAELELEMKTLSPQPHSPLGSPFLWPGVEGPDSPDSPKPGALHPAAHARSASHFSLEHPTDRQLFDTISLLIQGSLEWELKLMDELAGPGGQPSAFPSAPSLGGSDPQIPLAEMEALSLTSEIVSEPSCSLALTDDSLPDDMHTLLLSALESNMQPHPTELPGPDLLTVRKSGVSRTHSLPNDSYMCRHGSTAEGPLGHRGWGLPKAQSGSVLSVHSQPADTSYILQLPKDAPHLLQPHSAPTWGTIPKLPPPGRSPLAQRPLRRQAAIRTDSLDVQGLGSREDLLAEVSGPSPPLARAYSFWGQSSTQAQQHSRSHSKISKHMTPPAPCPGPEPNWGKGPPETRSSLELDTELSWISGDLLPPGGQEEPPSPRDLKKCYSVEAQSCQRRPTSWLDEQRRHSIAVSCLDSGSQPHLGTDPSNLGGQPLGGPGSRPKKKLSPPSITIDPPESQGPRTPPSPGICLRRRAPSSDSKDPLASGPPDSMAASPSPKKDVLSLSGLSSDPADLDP

hCav3.3 = molecular target: T2, hCav3.3 (Homo sapiens, UniProt Q9P0X4); assay: as above; format: cell-based
T2 construct: expressed in transfected cells; host or cells: HEK-293
T2 sequence (Q9P0X4 whole entry): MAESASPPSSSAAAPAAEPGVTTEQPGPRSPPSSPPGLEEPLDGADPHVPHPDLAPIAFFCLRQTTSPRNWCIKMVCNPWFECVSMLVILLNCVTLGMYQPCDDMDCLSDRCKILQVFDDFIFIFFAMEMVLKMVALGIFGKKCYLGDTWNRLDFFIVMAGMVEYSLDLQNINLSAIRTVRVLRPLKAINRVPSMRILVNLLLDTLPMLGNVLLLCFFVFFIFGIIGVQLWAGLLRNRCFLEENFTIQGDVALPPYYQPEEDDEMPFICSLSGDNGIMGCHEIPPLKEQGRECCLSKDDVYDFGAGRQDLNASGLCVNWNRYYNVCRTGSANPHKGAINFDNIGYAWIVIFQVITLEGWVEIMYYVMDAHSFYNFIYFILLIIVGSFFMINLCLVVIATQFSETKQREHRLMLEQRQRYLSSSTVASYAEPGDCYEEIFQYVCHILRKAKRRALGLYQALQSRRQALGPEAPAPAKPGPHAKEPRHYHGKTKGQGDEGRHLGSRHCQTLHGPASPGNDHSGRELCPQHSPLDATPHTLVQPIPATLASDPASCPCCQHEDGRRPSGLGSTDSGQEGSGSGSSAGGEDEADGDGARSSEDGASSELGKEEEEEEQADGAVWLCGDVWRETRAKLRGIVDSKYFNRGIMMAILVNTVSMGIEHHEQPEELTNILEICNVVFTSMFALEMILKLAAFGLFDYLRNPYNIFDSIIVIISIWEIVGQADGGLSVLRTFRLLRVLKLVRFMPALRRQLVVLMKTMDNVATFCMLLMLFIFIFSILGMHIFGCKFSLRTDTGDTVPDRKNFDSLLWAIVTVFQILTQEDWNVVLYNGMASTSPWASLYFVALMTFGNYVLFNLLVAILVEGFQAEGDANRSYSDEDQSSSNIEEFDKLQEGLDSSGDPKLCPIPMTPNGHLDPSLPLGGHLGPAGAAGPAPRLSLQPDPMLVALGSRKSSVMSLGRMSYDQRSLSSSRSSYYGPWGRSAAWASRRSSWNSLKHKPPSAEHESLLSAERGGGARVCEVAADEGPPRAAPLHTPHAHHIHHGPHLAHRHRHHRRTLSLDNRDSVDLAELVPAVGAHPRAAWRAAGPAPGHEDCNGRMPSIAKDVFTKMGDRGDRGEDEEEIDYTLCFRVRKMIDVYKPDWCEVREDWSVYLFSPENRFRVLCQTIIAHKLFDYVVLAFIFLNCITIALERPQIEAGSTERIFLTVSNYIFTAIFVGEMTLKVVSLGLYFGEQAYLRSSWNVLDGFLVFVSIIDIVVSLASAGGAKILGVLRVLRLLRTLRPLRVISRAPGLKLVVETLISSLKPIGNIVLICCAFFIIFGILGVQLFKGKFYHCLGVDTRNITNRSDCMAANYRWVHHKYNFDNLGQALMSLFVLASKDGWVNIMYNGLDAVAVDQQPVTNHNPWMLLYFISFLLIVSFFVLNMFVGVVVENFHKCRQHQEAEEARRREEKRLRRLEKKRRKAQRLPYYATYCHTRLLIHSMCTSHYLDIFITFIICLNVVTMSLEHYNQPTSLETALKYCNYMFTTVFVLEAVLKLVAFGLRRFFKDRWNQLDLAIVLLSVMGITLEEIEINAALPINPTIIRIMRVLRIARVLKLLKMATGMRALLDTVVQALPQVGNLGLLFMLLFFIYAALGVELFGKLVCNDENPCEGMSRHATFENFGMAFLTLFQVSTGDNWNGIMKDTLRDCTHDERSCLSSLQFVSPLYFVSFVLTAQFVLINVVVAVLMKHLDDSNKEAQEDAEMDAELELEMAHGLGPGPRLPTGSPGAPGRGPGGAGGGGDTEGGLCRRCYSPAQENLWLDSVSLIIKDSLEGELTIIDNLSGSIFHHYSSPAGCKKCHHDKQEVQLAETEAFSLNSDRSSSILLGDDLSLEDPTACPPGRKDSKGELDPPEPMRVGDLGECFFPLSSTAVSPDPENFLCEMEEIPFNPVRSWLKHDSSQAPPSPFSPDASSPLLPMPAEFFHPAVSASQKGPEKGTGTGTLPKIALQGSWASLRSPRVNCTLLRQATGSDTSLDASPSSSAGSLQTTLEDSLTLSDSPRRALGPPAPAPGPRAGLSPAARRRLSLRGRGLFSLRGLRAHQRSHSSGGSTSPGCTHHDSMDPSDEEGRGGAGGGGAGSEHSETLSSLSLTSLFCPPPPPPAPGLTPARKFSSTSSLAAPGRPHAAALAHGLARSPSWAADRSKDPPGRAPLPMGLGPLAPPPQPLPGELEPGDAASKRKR

[2] = Formula (I) group, Day 70 follow-up
[3] = Part B - RWD, RWAS, Formula (I) group, Day 56
[4] = Part B - RWD, RWAS, Formula (I) group, Day 70
[5] = Part B - RWD, RWAS, Formula (I) group, Randomization Baseline (Day 42 post-dose value)
[6] = Part B RWD, Formula (I) group, Day 56

CC(C)(C)NC(=O)CN1CCC(CNC(=O)c2cc(F)cc(Cl)c2)CC1 [compound of formula (I), N-((1-(2-(tert-butylamino)-2-oxoethyl)piperidin-4-yl)methyl)-3-chloro-5-fluorobenzamide]
TETRAS ADL score, LS mean change from randomization baseline (Day 42) [1, 2]: 3.267 | TETRAS combined upper limb score, LS mean change from randomization baseline (Day 42) [1, 2]: 3.156 | increase in combined upper limb tremor amplitude [1, 2]: 28.1% | increase in upper limb tremor amplitude [1, 2]: 27.2% | mADL score, LS mean change from randomization baseline (Day 42) [1, 2]: 4.353 | TETRAS upper limb score, LS mean change from randomization baseline (Day 42) ([1]; Formula (I) group, Day 70 follow-up (2 weeks after cessation)): 1.653 | TETRAS ADL LS Mean Difference: Formula (I) - Placebo (95% CI) ([1]; Part B - RWD, RWAS, Day 56): −9.578 (−18.9020, −0.2546) | TETRAS CULS LS Mean Difference: Formula (I) - Placebo (95% CI) ([1]; Part B - RWD, RWAS, Day 56): −1.896 (−8.7365, 4.9451) | TETRAS PSTS LS Mean Difference: Formula (I) - Placebo (95% CI) ([1]; Part B - RWD, RWAS, Day 56): −3.025 (−11.2090, 5.1595) | TETRAS ULS LS Mean Difference: Formula (I) - Placebo (95% CI) ([1]; Part B - RWD, RWAS, Day 56): −0.253 (−4.9188, 4.4129) | TETRAS mADL LS Mean Difference: Formula (I) - Placebo (95% CI) ([1]; Part B - RWD, RWAS, Day 56): −8.439 (−15.3856, −1.4916) | TETRAS ADL LS Mean Difference: Formula (I) - Placebo (95% CI) ([1]; Part B - RWD, RWAS, Day 70): −5.988 (−16.8132, 4.8377) | TETRAS CULS LS Mean Difference: Formula (I) - Placebo (95% CI) ([1]; Part B - RWD, RWAS, Day 70): −0.964 (−6.5938, 4.6660) | TETRAS PSTS LS Mean Difference: Formula (I) - Placebo (95% CI) ([1]; Part B - RWD, RWAS, Day 70): −1.277 (−7.5286, 4.9741) | TETRAS ULS LS Mean Difference: Formula (I) - Placebo (95% CI) ([1]; Part B - RWD, RWAS, Day 70): −0.316 (−3.3765, 2.7441) | TETRAS mADL LS Mean Difference: Formula (I) - Placebo (95% CI) ([1]; Part B - RWD, RWAS, Day 70): −3.236 (−12.3264, 5.8538) | TETRAS ADL LS Mean CFB [1, 3]: 0.877 | TETRAS CULS LS Mean CFB [1, 3]: 1.525 | TETRAS PS Item 6: Archimedes Spiral (Left) LS Mean CFB [1, 3]: 0.394 | TETRAS PS Item 6: Archimedes Spiral (Right) LS Mean CFB [1, 3]: 0.087 | TETRAS PS Item 7: Handwriting LS Mean CFB [1, 3]: 0.037 | TETRAS PSTS LS Mean CFB [1, 3]: 1.174 | TETRAS ULS LS Mean CFB [1, 3]: 0.716 | TETRAS mADL LS Mean CFB [1, 3]: 1.350 | TETRAS ADL Mean CFB (SD) [1, 3]: 5.84 (16.276) | TETRAS CULS CTA (%) [1, 3]: 14.7% | TETRAS PS Item 6: Archimedes Spiral (Left) CTA (%) [1, 3]: 36.5% | TETRAS PS Item 6: Archimedes Spiral (Right) CTA (%) [1, 3]: 9.5% | TETRAS PS Item 7: Handwriting CTA (%) [1, 3]: 4.2% | TETRAS PSTS CTA (%) [1, 3]: 8.1% | TETRAS ULS CTA (%) [1, 3]: 12.8% | TETRAS mADL Mean CFB (SD) [1, 3]: 8.45 (34.208) | TETRAS ADL LS Mean CFB [1, 4]: 3.267 | TETRAS CULS LS Mean CFB [1, 4]: 3.156 | TETRAS PS Item 6: Archimedes Spiral (Left) LS Mean CFB [1, 4]: 0.384 | TETRAS PS Item 6: Archimedes Spiral (Right) LS Mean CFB [1, 4]: 0.353 | TETRAS PS Item 7: Handwriting LS Mean CFB [1, 4]: 0.189 | TETRAS PSTS LS Mean CFB [1, 4]: 3.422 | TETRAS ULS LS Mean CFB [1, 4]: 1.653 | TETRAS mADL LS Mean CFB [1, 4]: 4.353 | TETRAS ADL Mean CFB (SD) [1, 4]: 18.73 (24.838) | TETRAS CULS CTA (%) [1, 4]: 28.1% | TETRAS PS Item 6: Archimedes Spiral (Left) CTA (%) [1, 4]: 35.8% | TETRAS PS Item 6: Archimedes Spiral (Right) CTA (%) [1, 4]: 33.4% | TETRAS PS Item 7: Handwriting CTA (%) [1, 4]: 19.6% | TETRAS PSTS CTA (%) [1, 4]: 21.8% | TETRAS ULS CTA (%) [1, 4]: 27.2% | TETRAS mADL Mean CFB (SD) [1, 4]: 87.71 (126.281) | TETRAS ADL, Mean [1, 5]: 22.17 | TETRAS CULS, Mean [1, 5]: 19.33 | TETRAS PS Item 6: Archimedes Spiral (Left), Mean [1, 5]: 1.75 | TETRAS PS Item 6: Archimedes Spiral (Right), Mean [1, 5]: 1.75 | TETRAS PS Item 7: Handwriting, Mean [1, 5]: 1.75 | TETRAS PSTS, Mean [1, 5]: 22.83 | TETRAS ULS, Mean [1, 5]: 10.25 | TETRAS mADL (TETRAS modified total score), Mean [1, 5]: 12.17 | TETRAS ADL score, LS mean difference (Formula (I)—Placebo) ([1]; Part B RWD, Day 56): −9.578 | TETRAS combined upper limb score, LS mean difference (Formula (I)—Placebo) ([1]; Part B RWD, Day 56): −1.896 | TETRAS upper limb score, LS mean difference (Formula (I)—Placebo) ([1]; Part B RWD, Day 56): −0.253 | mADL total score, LS mean difference (Formula (I)—Placebo) ([1]; Part B RWD, Day 56): −8.439 | TETRAS ADL score, LS mean change from randomization baseline (Day 42) [1, 6]: 0.877 | TETRAS combined upper limb score, LS mean change from randomization baseline (Day 42) [1, 6]: 1.525 | TETRAS upper limb score, LS mean change from randomization baseline (Day 42) [1, 6]: 0.716 | increase in combined upper limb tremor amplitude [1, 6]: 14.7% | increase in upper limb tremor amplitude [1, 6]: 12.8% | mADL total score, LS mean change from randomization baseline (Day 42) [1, 6]: 1.350

CC(C)(C)NC(=O)CN1CCC(CNC(=O)c2cc(F)cc(Cl)c2)CC1.Cl [compound of formula (II), N-((1-(2-(tert-butylamino)-2-oxoethyl)piperidin-4-yl)methyl)-3-chloro-5-fluorobenzamide hydrochloride]
tonic block/voltage dependent block (TB/VDB) ratio (hCav3.1): 3.8 | tonic block/voltage dependent block (TB/VDB) ratio (hCav3.3): 4.0
